For 5 molecules, IC50 and Ki results are on record in ChEMBL document CHEMBL4834496 (ACS Med Chem Lett, 2021).

Assay [1] deals with T1, Botulinum neurotoxin type A (Clostridium botulinum, UniProt P0DPI0). The assay is described as follows: Inhibition of Clostridium botulinum BoNT/A using SNAP-25 (66-mer) as substrate by LC-MS analysis.
Assay [2] deals with T1, Botulinum neurotoxin type A. The assay is described as follows: Inhibition of Clostridium botulinum BoNT/A light chain.

T1 sequence (P0DPI0 2-448 limits assumed): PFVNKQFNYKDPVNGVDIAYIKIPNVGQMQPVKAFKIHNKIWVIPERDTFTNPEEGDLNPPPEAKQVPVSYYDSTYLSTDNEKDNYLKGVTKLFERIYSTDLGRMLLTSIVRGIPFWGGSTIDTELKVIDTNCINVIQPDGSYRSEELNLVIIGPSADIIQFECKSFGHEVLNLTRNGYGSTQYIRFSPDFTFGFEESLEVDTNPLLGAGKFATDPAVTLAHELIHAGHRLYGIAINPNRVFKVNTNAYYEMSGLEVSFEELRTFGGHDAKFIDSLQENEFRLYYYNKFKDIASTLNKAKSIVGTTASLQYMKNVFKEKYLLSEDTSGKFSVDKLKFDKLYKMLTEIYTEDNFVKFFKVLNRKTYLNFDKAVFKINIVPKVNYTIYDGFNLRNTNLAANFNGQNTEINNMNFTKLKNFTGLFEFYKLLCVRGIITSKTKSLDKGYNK

Consider `O=C(C[C@@H](CCO)c1ccc(Cl)cc1Cl)NO`, for which, in assay [1], inhibition was half-maximal at 1 µM (IC50). Turning to `N=C(N)NCCC[C@H](N)C(=O)NO`, affinity in assay [2] was put at a Ki of 60 µM. `O=C(C[C@H](CCO)c1ccc(Cl)cc1)NO` yielded an IC50 in assay [1] of 36 µM. Same read-out and setting: with `O=C(C[C@H](CCO)c1ccc(Cl)cc1Cl)NO` the figure was 21 µM; with `O=C(C[C@@H](CCO)c1ccc(Cl)cc1)NO`, 8 µM.
